This test deals with ZIKV. In words: ZIKV reporter virus-based antiviral screening on Huh7 cells. The class given is cell-based, Zika virus. To be noted: Zika virus, Huh-7, 48 h, Huh7 cells infected with recombinant luciferase reporter ZIKV (MOI about 0.1), luciferase signal. The method in brief: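 Huh7 cells in 2% FBS assay medium infected at MOI about 0.1 with Renilla or Nano luciferase ZIKV premixed with nine-point compound dilutions, 48 hrs at 37° C. Luciferase signal normalized to DMSO controls as 100%; viability optionally by CellTiter-Glo with Rlu virus.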

With `CCCc1nc([C@@H]2CCCN2C(=O)[C@@H](NC(=O)OC)C(C)C)[nH]c1-c1cc2c3c(c1)OCc1cc(-c4[nH]c([C@@H]5CCCN5C(=O)[C@@H](NC(=O)OC)C(C)C)nc4CCC)cc(c1-3)OC2` [Compound 79, dimethyl ((2S,2′S)-((2S,2′S)-((5,10-dihydrochromeno[5,4,3-cde]chromene-2,7-diyl)bis(4-propyl-1H-imidazole-5,2-diyl))bis(pyrrolidine-2,1-diyl))bis(3-methyl-1-oxobutane-1,2-diyl))dicarbamate], the EC50 worked out at 200 nM. For `COC[C@H]1C[C@@H](c2nc(Cl)c(-c3cc4c5c(c3)OCc3cc(-c6[nH]c([C@@H]7C[C@H](COC)CN7C(=O)[C@@H](NC(=O)OC)C(C)C)nc6Cl)cc(c3-5)OC4)[nH]2)N(C(=O)[C@@H](NC(=O)OC)C(C)C)C1` [Compound 45, dimethyl ((2S,2′S)-((3S,3′S,5S,5′S)-((5,10-dihydrochromeno[5,4,3-cde]chromene-2,7-diyl)bis(4-chloro-1H-imidazole-5,2-diyl))bis(3-(methoxymethyl)pyrrolidine-5,1-diyl))bis(3-methyl-1-oxobutane-1,2-diyl))dicarbamate] the value was 19.3 nM; for `COC(=O)N[C@H](C(=O)N1CCC[C@H]1c1nc(Cl)c(-c2cc3c4c(c2)OCc2cc(-c5[nH]c([C@@H]6CCCN6C(=O)[C@@H](NC(=O)OC)C(C)(C)C(F)(F)F)nc5Cl)cc(c2-4)OC3)[nH]1)C(C)(C)C(F)(F)F` [Compound 27, dimethyl ((2S,2′S)-((2S,2′S)-((5,10-dihydrochromeno[5,4,3-cde]chromene-2,7-diyl)bis(4-chloro-1H-imidazole-5,2-diyl))bis(pyrrolidine-2,1-diyl))bis(4,4,4-trifluoro-3,3-dimethyl-1-oxobutane-1,2-diyl))dicarbamate], 2.6 nM; for `CC[C@H](C)[C@H](NC(=O)OC)C(=O)N1C[C@@H](C)C[C@H]1c1ncc(-c2cc3c4c(c2)OCc2cc(-c5[nH]c([C@@H]6C[C@H](C)CN6C(=O)[C@@H](NC(=O)OC)[C@@H](C)CC)nc5Cl)cc(c2-4)OC3)[nH]1` [Compound 67, methyl ((2S,3S)-1-((2S,4S)-2-(4-chloro-5-(7-(2-((2S,4S)-1-((methoxycarbonyl)-L-isoleucyl)-4-methylpyrrolidin-2-yl)-1H-imidazol-5-yl)-5,10-dihydrochromeno[5,4,3-cde]chromen-2-yl)-1H-imidazol-2-yl)-4-methylpyrrolidin-1-yl)-3-methyl-1-oxopentan-2-yl)carbamate], 23.9 nM. Turning to `CC(C)[C@H](NC(=O)C1CC1)C(=O)N1CCC[C@H]1c1nc(Cl)c(-c2cc3c4c(c2)OCc2cc(-c5[nH]c([C@@H]6CCCN6C(=O)[C@@H](NC(=O)C6CC6)C(C)C)nc5Cl)cc(c2-4)OC3)[nH]1` [Compound 25, N,N′-((2S,2′S)-((2S,2′S)-((5,10-dihydrochromeno[5,4,3-cde]chromene-2,7-diyl)bis(4-chloro-1H-imidazole-5,2-diyl))bis(pyrrolidine-2,1-diyl))bis(3-methyl-1-oxobutane-1,2-diyl))dicyclopropanecarboxamide], the half-maximal effective concentration (EC50) turned out to be 21.9 nM. For `COC(=O)N[C@H](C(=O)N1C[C@@H](C)C[C@H]1c1nc(Cl)c(-c2cc3c4c(c2)OCc2cc(-c5[nH]c([C@@H]6C[C@H](C)CN6C(=O)[C@@H](NC(=O)OC)[C@@H](C)OC)nc5Cl)cc(c2-4)OC3)[nH]1)[C@@H](C)OC` [Compound 47, dimethyl ((2S,2′S,3R,3′R)-((3S,3′S,5S,5′S)-((5,10-dihydrochromeno[5,4,3-cde]chromene-2,7-diyl)bis(4-chloro-1H-imidazole-5,2-diyl))bis(3-methylpyrrolidine-5,1-diyl))bis(3-methoxy-1-oxobutane-1,2-diyl))dicarbamate] the value was 16.9 nM; for `CC[C@H](C)[C@H](NC(=O)OC)C(=O)N1C[C@@H](C)C[C@H]1c1nc(Cl)c(-c2cc3c4c(c2)OCc2cc(-c5[nH]c([C@@H]6C[C@H](C)CN6C(=O)[C@@H](NC(=O)OC)[C@@H](C)CC)nc5Cl)cc(c2-4)OC3)[nH]1` [Compound 68, dimethyl ((2S,2′S,3S,3′S)-((3S,3′S,5S,5′S)-((5,10-dihydrochromeno[5,4,3-cde]chromene-2,7-diyl)bis(4-chloro-1H-imidazole-5,2-diyl))bis(3-methylpyrrolidine-5,1-diyl))bis(3-methyl-1-oxopentane-1,2-diyl))dicarbamate], 9.9 nM; for `CC[C@H](C)[C@H](NC(=O)OC)C(=O)N1C[C@H](C)C[C@H]1c1nc(Cl)c(-c2cc3c4c(c2)OCc2cc(-c5[nH]c([C@@H]6C[C@@H](C)CN6C(=O)[C@@H](NC(=O)OC)[C@@H](C)CC)nc5Cl)cc(c2-4)OC3)[nH]1` [Compound 2, dimethyl ((2S,2′S,3S,3′S)-((3R,3′R,5S,5′S)-((5,10-dihydrochromeno[5,4,3-cde]chromene-2,7-diyl)bis(4-chloro-1H-imidazole-5,2-diyl))bis(3-methylpyrrolidine-5,1-diyl))bis(3-methyl-1-oxopentane-1,2-diyl))dicarbamate], 6.5 nM.

The term EC50 denotes the concentration giving half of the maximal effect.

The record behind these values is patent US12497408B2, “Tetracyclic compounds and methods for the treatment of Zika virus infection” (priority 2021, dated 2025).
